Source: patent publication US7157466B2, “Quinazoline ditosylate salt compounds” (SmithKline Beecham (Cork) Limited, priority 2000, dated 2007)
Read-outs that look alike come from different tables or passages of the source.

Experiments:
[1] = tested on: gastric tumor (N87) cell line; assay: Methylene blue growth inhibition assay, N87; type: cell-based; conditions: Homo sapiens, 72 h, read-out: N87 IC50 uM Cell
Description: Human breast (BT474), head and neck (HN5) and gastric tumor (N87) cell lines and human foreskin Fibroblasts (HFF) were cultured in low glucose DMEM (Life Technologies 12320-032) containing 10% fetal bovine serum (FBS) at 37° C. in a humidified 10% CO2, 90% air incubator. The SV40 transformed human mammary epithelial cell line HB4a was transfected with either human H-ras cDNA (HB4a r4.2) or the human c-erbB2 cDNA (HB4a c5.2). The HB4a clones were cultured in RPMI containing 10% FBS, insulin (5 μg/ml), hydrocortisone (5 μg/ml), supplemented with the selection agent hygromycin B (50 μg/ml). Cells were harvested using trypsin/EDTA, counted using a haemocytometer, and plated in […] of the appropriate media, at the following densities, in a 96-well tissue culture plate (Falcon 3075): BT474 10,000 cells/well, HN5 3,000 cells/well, N87 10,000 cells/well, HB4a c5.2 3,000 cells/well, HB4a r4.2 3,000 cells/well, HFF 2500 cells/well. […] Medium containing 0.6% DMSO was added to control wells. Compounds diluted in DMEM were added to all cell lines, including the HB4a r4.2 and HB4a c5.2 cell lines. The final concentration of DMSO in all wells was 0.3%. Cells were incubated at 37° C., 10% CO2 for 3 days. Medium was removed by aspiration. […] Optical density at 620 nm was measured on a microplate reader. Percent inhibition of cell growth was calculated relative to vehicle treated control wells. […]

[2] = tested on: head and neck (HN5) cell line; assay: Methylene blue growth inhibition assay, HN5; type: cell-based; conditions: Homo sapiens, read-out: HN5 IC50 uM Cell
Description: Human breast (BT474), head and neck (HN5) and gastric tumor (N87) cell lines and human foreskin Fibroblasts (HFF) were cultured in low glucose DMEM (Life Technologies 12320-032) containing 10% fetal bovine serum (FBS) at 37° C. in a humidified 10% CO2, 90% air incubator. The SV40 transformed human mammary epithelial cell line HB4a was transfected with either human H-ras cDNA (HB4a r4.2) or the human c-erbB2 cDNA (HB4a c5.2). The HB4a clones were cultured in RPMI containing 10% FBS, insulin (5 μg/ml), hydrocortisone (5 μg/ml), supplemented with the selection agent hygromycin B (50 μg/ml). Cells were harvested using trypsin/EDTA, counted using a haemocytometer, and plated in […] of the appropriate media, at the following densities, in a 96-well tissue culture plate (Falcon 3075): BT474 10,000 cells/well, HN5 3,000 cells/well, N87 10,000 cells/well, HB4a c5.2 3,000 cells/well, HB4a r4.2 3,000 cells/well, HFF 2500 cells/well. The next day, compounds were diluted in DMEM containing […] gentamicin, at twice the final required concentration, from 10 mM stock solutions in DMSO. […] of these dilutions were added to the […] of media currently on the cell plates. Medium containing 0.6% DMSO was added to control wells. Compounds diluted in DMEM were added to all cell lines, including the HB4a r4.2 and HB4a c5.2 cell lines. The final concentration of DMSO in all wells was 0.3%. Cells were incubated at 37° C., 10% CO2 for 3 days. Medium was removed by aspiration. Cell biomass was estimated by staining cells with 100 μl per well methylene blue (Sigma M9140, 0.5% in 50:50 ethanol:water), and incubation at room temperature for at least 30 minutes. Stain was removed, and the plates rinsed under a gentle stream of water, and air-dried. To release stain from the cells 100 μl of solubilization solution was added (1% N-lauroyl sarcosine, Sodium salt, Sigma L5125, in PBS), and plates were shaken gently for about 30 minutes. Optical density at 620 nm was measured on a microplate reader. Percent inhibition of cell growth was calculated relative to vehicle treated control wells. […]

[3] = Slurry equilibration, relative physical stability of anhydrate and monohydrate crystal forms; conditions: 25° C.; for Equilibrium Form: 1:1 anhydrate/monohydrate slurry in MeOH/H2O
[4] = Moisture sorption testing; type: physicochemical; conditions: humidities e.g. 20–75% relative humidity (RH)
Description: Approximately 12 mg of N-{3-Chloro-4-[(3-fluorobenzyl) oxy]phenyl}-6-[5-({[2-(methanesulphonyl)ethyl]amino}methyl)-2-furyl]-4-quinazolinamine ditosylate monohydrate salt prepared according to Example 10 was weighed into a sample pan of a moisture sorption apparatus (model number SGA-100, made by VTI). The sample was dried at 60° C. under a nitrogen stream until the weight loss was less than 0.015% in 5 minutes. The relative humidity (RH) was then increased (adsorption) to 5, 15, 25, 35, 45, 55, 65, 75, 85 and 95%—at each step, equilibrium was defined as a weight change of less than 0.015% in 5 minutes. The relative humidity was then decreased (desorption) to 90, 80, 70, 60, 50, 40, 30, and 20% with the same equilibrium condition. The sorption curve (y-axis: Weight—% change vs. x-axis: % RH) is depicted in FIG. 3(a).
Approximately 15 mg of N-{3-Chloro-4-[(3-fluorobenzyl) oxy]phenyl}-6-[5-({[2-(methanesulphonyl)ethyl]amino}methyl)-2-furyl]-4-quinazolinamine di-HCl salt was weighed into a sample pan of a moisture sorption apparatus (model number SGA-100, made by VTI). The sample was dried at 60° C. under a nitrogen stream until the weight loss was less than 0.015% in 5 minutes. The relative humidity was then increased (adsorption) to 5, 15, 25, 35, 45, 55, 65, 75, 85 and 95%—at each step, equilibrium was defined as a weight change of less than 0.015% in 5 minutes. […]

[5] = 72 h, HN5 cells, 3 days, methylene blue

## CS(=O)(=O)CCNCc1ccc(-c2ccc3ncnc(Nc4ccc(OCc5cccc(F)c5)c(Cl)c4)c3c2)o1 [Example 8, N-{3-Chloro-4-[(3-fluorobenzyl)oxy]phenyl}-6-[5-({[2-(methanesulphonyl)ethyl]amino}methyl)-2-furyl]-4-quinazolinamine ditosylate anhydrate]
[1]
  IC50: < 5 µM
[2]; HN5, 72 h
  IC50: < 5 µM

## CS(=O)(=O)CCNCc1ccc(-c2ccc3ncnc(Nc4ccc(OCc5cccc(F)c5)c(Cl)c4)c3c2)o1 [N-{3-Chloro-4-[(3-fluorobenzyl)oxy]phenyl}-6-[5-({[2-(methanesulphonyl)ethyl]amino}methyl)-2-furyl]-4-quinazolinamine ditosylate]
[3]; water volume 0%, RH 0%
  Equilibrium Form: Anhydrate
[3]; water volume 2%, RH 7%
  Equilibrium Form: Anhydrate
[3]; water volume 5%, RH 15%
  Equilibrium Form: Monohydrate
[3]; water volume 10%, RH 26%
  Equilibrium Form: Monohydrate
[3]; water volume 20%, RH 43%
  Equilibrium Form: Monohydrate
[3]; water volume 40%, RH 66%
  Equilibrium Form: Monohydrate
[3]; water volume 60%, RH 80%
  Equilibrium Form: Monohydrate
[3]; water volume 80%, RH 91%
  Equilibrium Form: Monohydrate
[3]; water volume 90%, RH 95%
  Equilibrium Form: Monohydrate
[3]; water volume 100%, RH 100%
  Equilibrium Form: Monohydrate

## CS(=O)(=O)CCNCc1ccc(-c2ccc3ncnc(Nc4ccc(OCc5cccc(F)c5)c(Cl)c4)c3c2)o1.Cl.Cl [di-HCl salt, N-{3-Chloro-4-[(3-fluorobenzyl)oxy]phenyl}-6-[5-({[2-(methanesulphonyl)ethyl]amino}methyl)-2-furyl]-4-quinazolinamine di-HCl salt]
[4]
  Water sorption: sorbs very large amounts of water

## CS(=O)(=O)CCNCc1ccc(-c2ccc3ncnc(Nc4ccc(OCc5cccc(F)c5)c(Br)c4)c3c2)o1 [Example 12, (4-(3-Fluoro-benzyloxy)-3-bromophenyl)-(6-(5-((2-methanesulphonyl-ethylamino)-methyl)-furan-2-yl)quinazolin-4-yl)-amine Ditosylate]
[2]; [5]
  IC50: < 5 µM

## CS(=O)(=O)CCNCc1ccc(-c2ccc3ncnc(Nc4ccc(OCc5cccc(F)c5)c(Cl)c4)c3c2)o1 [Example 10, N-{3-Chloro-4-[(3-fluorobenzyl)oxy]phenyl}-6-[5-({[2-(methanesulphonyl)ethyl]amino}methyl)-2-furyl]-4-quinazolinamine ditosylate monohydrate]
[3]; slurry equilibration, remains stable up through 100% RH
  RH at which the monohydrate becomes the thermodynamically stable form: 7–15 % RH

## CS(=O)(=O)CCNCc1nc(-c2ccc3ncnc(Nc4ccc(OCc5cccc(F)c5)c(Cl)c4)c3c2)cs1 [Example 13, (4-(3-Fluoro-benzyloxy)-3-chlorophenyl)-(6-(2-((2-methanesulphonyl-ethylamino)-methyl)-thiazol-4-yl)quinazolin-4-yl)-amine ditosylate]
[2]; [5]
  IC50: < 5 µM
